19 compounds from patent US10851097B2, “4,5,6,7-tetrahydro-1H-imidazo[4,5-c]pyridine and 1,4,5,6,7,8-hexahydroimidazo[4,5-d]azepine derivatives as janus kinase inhibitors” (Topivert Pharma Limited, priority 2015, dated 2020) can be followed below.

By IC50 is commonly meant the midpoint of a concentration-inhibition curve. Low values mean greater potency, high ones weaker potency.

The test system of data set [1] is CD3/IL2 stimulated PBMC cells. Nature of the data set: IFNγ release from CD3/IL2 stimulated PBMC cells (assay (a)). Format: cell-based. As to conditions: Homo sapiens, CD3/IL2 stimulation, 48 h, ELISA. On the procedure: (a) IFNγ Release from CD3/IL2 Stimulated PBMC Cells
PBMCs from healthy subjects are separated from whole blood using a density gradient (Lymphoprep, Axis-Shield Healthcare). Cells are added to a 96 well plate, and compound at the desired concentration added 2 hours prior to stimulation with a mixture of monoclonal antibody to CD3 (1 μg/ml, eBioscience) and human recombinant IL2 (10 ng/ml, Peprotech). After 48 hours incubation under normal tissue culture conditions, supernatants are collected and IFNγ release determined by Sandwich ELISA (Duo-set, R&D System). The IC50 is determined from the dose response curve.
Background: An ELISA detects its analyte on a solid surface through an enzyme-linked reagent.

The subject of data set [2] is Jurkat cells. Nature of the data set: Cell cytotoxicity assay in Jurkat cells (assay (c)). Format: cell-based, human. As to conditions: 24 h, propidium iodide, normalised to DMSO control. On the procedure:
(c) Cell Cytotoxicity Assay
1×10^5 Jurkat cells (immortalised human T lymphocytes) are added to the appropriate number of wells of a 96 well plate in 100 μL of media (RPMI supplemented with 10% foetal bovine serum). 1 μL of DMSO control (final concentration 1.0% v/v) or test compound (final concentration 20, 5 or 1 μg/mL) is added to the wells and incubated at 37° C., 5% CO2. After 24 hours, the plate is centrifuged at 1200 rpm for 3 minutes and the supernatant discarded. Cells are then resuspended in 150 μL (final concentration 7.5 μg/mL) of propidium iodide (PI) in PBS and incubated at 37° C., 5% CO2 for 15 minutes. After 15 minutes, cells are analysed by flow cytometry (BD accuri) using the FL3 window. The % viability is calculated as the % of cells that are PI negative in the test wells normalised to the DMSO control.

In the case of `CCc1cc(O)c(F)cc1-c1ccc2c(-c3nc4c([nH]3)CCN(C(=O)c3cnc(N5C[C@H](O)[C@@H](O)[C@H](O)[C@H]5CO)cn3)C4)n[nH]c2c1` (stereo in doubt) [Example 2(s), (2-(6-(2-ethyl-5-fluoro-4-hydroxyphenyl)-1H-indazol-3-yl)-6,7-dihydro-1H-imidazo[4,5-c]pyridin-5(4H)-yl)(5-((2R,3R,4R,5S)-3,4,5-trihydroxy-2-(hydroxymethyl)piperidin-1-yl)pyrazin-2-yl)methanone], in data set [1], the IC50 was found to be 694 nM. This lies in the sub-micromolar range.
`CCc1cc(O)c(F)cc1-c1ccc2c(-c3nc4c([nH]3)CCN(C(=O)c3cnc(N5CC[S+]([O-])CC5)cn3)C4)n[nH]c2c1` [Example 2(e), (2-(6-(2-ethyl-5-fluoro-4-hydroxyphenyl)-1H-indazol-3-yl)-1,4,6,7-tetrahydro-5H-imidazo[4,5-c]pyridin-5-yl)(5-(1-oxildothiomorpholino)pyrazin-2-yl)methanone] returned an IC50 in data set [1] of 57.6 nM. In data set [2], the “% viability at 1 μg/mL” value is recorded as 96%.
Take `CCc1cc(O)c(F)cc1-c1ccc2c(-c3nc4c([nH]3)CCN(C(=O)c3cnc(N(C)CCN5CCCS5(=O)=O)cn3)C4)n[nH]c2c1` [Example 2(v), (5-((2-(1,1-dioxidoisothiazolidin-2-yl)ethyl)(methyl)amino)pyrazin-2-yl)(2-(6-(2-ethyl-5-fluoro-4-hydroxyphenyl)-1H-indazol-3-yl)-6,7-dihydro-1H-imidazo[4,5-c]pyridin-5(4H)-yl)methanone]: the IC50 in data set [1] worked out at 7.5 nM. Besides, the “% viability at 1 μg/mL” value in data set [2] came out at 82%.
For the compound `CCc1cc(O)c(F)cc1-c1ccc2c(-c3nc4c([nH]3)CCN(C(=O)c3cnc(N(CCO)CCO)cn3)C4)n[nH]c2c1` [Example 2(p), (5-(bis(2-hydroxyethyl)amino)pyrazin-2-yl)(2-(6-(2-ethyl-5-fluoro-4-hydroxyphenyl)-1H-indazol-3-yl)-6,7-dihydro-1H-imidazo[4,5-c]pyridin-5(4H)-yl)methanone], in data set [1], half-maximal inhibition (IC50) was put at 154 nM.
In turn, `CCc1cc(O)c(F)cc1-c1ccc2c(-c3nc4c([nH]3)CCN(C(=O)c3cnc(N5CC(CO)C5)cn3)C4)n[nH]c2c1` [Example 2(o), (2-(6-(2-ethyl-5-fluoro-4-hydroxyphenyl)-1H-indazol-3-yl)-6,7-dihydro-1H-imidazo[4,5-c]pyridin-5(4H)-yl)(5-(3-(hydroxymethyl)azetidin-1-yl)pyrazin-2-yl)methanone] showed an IC50 in data set [1] of 22.5 nM. In addition, the “% viability at 1 μg/mL” value in data set [2] was 62%.
`CCc1cc(O)c(F)cc1-c1ccc2c(-c3nc4c([nH]3)CCN(C(=O)c3cnc(N5C[C@@H]6C(=O)NC(=O)[C@@H]6C5)cn3)C4)n[nH]c2c1` [Example 2(w), (3aR,6aS)-5-(5-(2-(6-(2-ethyl-5-fluoro-4-hydroxyphenyl)-1H-indazol-3-yl)-4,5,6,7-tetrahydro-1H-imidazo[4,5-c]pyridine-5-carbonyl)pyrazin-2-yl)tetrahydropyrrolo[3,4-c]pyrrole-1,3(2H,3aH)-dione]: in data set [1], half-maximal inhibition (IC50) was put at 942 nM.
For the compound `CCc1cc(O)c(F)cc1-c1ccc2c(-c3nc4c([nH]3)CCN(C(=O)c3cnc(NCCS(C)(=O)=O)cn3)C4)n[nH]c2c1` [Example 2(q), (2-(6-(2-ethyl-5-fluoro-4-hydroxyphenyl)-1H-indazol-3-yl)-6,7-dihydro-1H-imidazo[4,5-c]pyridin-5(4H)-yl)(5-((2-(methylsulfonyl)ethyl)amino)pyrazin-2-yl)methanone], half-maximal inhibition in data set [1] (IC50) was put at 113 nM. Moreover, the “% viability at 1 μg/mL” value in data set [2] was 94%.
The matching figures for `CCc1cc(O)c(F)cc1-c1ccc2c(-c3nc4c([nH]3)CCN(C(=O)c3cnc(N5CCN(CCO)CC5)cn3)C4)n[nH]c2c1` [Example 2(l), (2-(6-(2-ethyl-5-fluoro-4-hydroxyphenyl)-1H-indazol-3-yl)-6,7-dihydro-1H-imidazo[4,5-c]pyridin-5(4H)-yl)(5-(4-(2-hydroxyethyl)piperazin-1-yl)pyrazin-2-yl)methanone]: 9.4 nM and 10%.
On to `CCc1cc(O)c(F)cc1-c1ccc2c(-c3nc4c([nH]3)CCN(C(=O)c3cnc(NCCN5CCCC5=O)cn3)C4)n[nH]c2c1` [Example 2(r), 1-(2-((5-(2-(6-(2-ethyl-5-fluoro-4-hydroxyphenyl)-1H-indazol-3-yl)-4,5,6,7-tetrahydro-1H-imidazo[4,5-c]pyridine-5-carbonyl)pyrazin-2-yl)amino)ethyl)pyrrolidin-2-one], for which, in data set [1], the half-maximal inhibitory concentration (IC50) amounted to 90.8 nM.
On to `CCc1cc(O)c(F)cc1-c1ccc2c(-c3nc4c([nH]3)CCN(C(=O)c3cnc(N5CCN(CCn6ccnc6)CC5)cn3)C4)n[nH]c2c1` [Example 2(j), (5-(4-(2-(1H-imidazol-1-yl)ethyl)piperazin-1-yl)pyrazin-2-yl)(2-(6-(2-ethyl-5-fluoro-4-hydroxyphenyl)-1H-indazol-3-yl)-1,4,6,7-tetrahydro-5H-imidazo[4,5-c]pyridin-5-yl)methanone], for which, in data set [1], the IC50 is 5.3 nM. In data set [2], the “% viability at 1 μg/mL” value is 12%.
`CCc1cc(O)c(F)cc1-c1ccc2c(-c3nc4c([nH]3)CCN(C(=O)c3cnc(N(C)Cc5ccccn5)cn3)C4)n[nH]c2c1` [Example 2(c), (2-(6-(2-ethyl-5-fluoro-4-hydroxyphenyl)-1H-indazol-3-yl)-1,4,6,7-tetrahydro-5H-imidazo[4,5-c]pyridin-5-yl)(5-(methyl(pyridin-2-ylmethyl)amino)pyrazin-2-yl)methanone]: it took 37 nM to reach half-maximal inhibition in data set [1] (IC50).
Compound `CCc1cc(O)c(F)cc1-c1ccc2c(-c3nc4c([nH]3)CCN(C(=O)c3cnc(NCCOCCOCCOC)cn3)C4)n[nH]c2c1` [Example 2(m), (2-(6-(2-ethyl-5-fluoro-4-hydroxyphenyl)-1H-indazol-3-yl)-6,7-dihydro-1H-imidazo[4,5-c]pyridin-5(4H)-yl)(5-((2-(2-(2-methoxyethoxy)ethoxy)ethyl)amino)pyrazin-2-yl)methanone] gave a half-maximal inhibitory concentration (IC50) in data set [1] of 15.2 nM. Further, the “% viability at 1 μg/mL” value in data set [2] was found to be 88%.
For the compound `CCc1cc(O)c(F)cc1-c1ccc2c(-c3nc4c([nH]3)CCN(C(=O)c3cnc(N(C)CCCC(=O)O)cn3)C4)n[nH]c2c1` [Example 2(a), 4-((5-(2-(6-(2-ethyl-5-fluoro-4-hydroxyphenyl)-1H-indazol-3-yl)-4,5,6,7-tetrahydro-1H-imidazo[4,5-c]pyridine-5-carbonyl)pyrazin-2-yl)(methyl)amino)butanoic acid], half-maximal inhibition in data set [1] (IC50) was put at 732 nM.
On the same count and under the same terms, in the case of `CCc1cc(O)c(F)cc1-c1ccc2c(-c3nc4c([nH]3)CCN(C(=O)c3cnc(NCCN5CCC(O)CC5)cn3)C4)n[nH]c2c1` [Example 2(b), (2-(6-(2-ethyl-5-fluoro-4-hydroxyphenyl)-1H-indazol-3-yl)-1,4,6,7-tetrahydro-5H-imidazo[4,5-c]pyridin-5-yl)(5-((2-(4-hydroxypiperidin-1-yl)ethyl)amino)pyrazin-2-yl)methanone] it was 87 nM; in that of `CCc1cc(O)c(F)cc1-c1ccc2c(-c3nc4c([nH]3)CCN(C(=O)c3cnc(NCCN5CC[S+]([O-])CC5)cn3)C4)n[nH]c2c1` [Example 2(d), (2-(6-(2-ethyl-5-fluoro-4-hydroxyphenyl)-1H-indazol-3-yl)-1,4,6,7-tetrahydro-5H-imidazo[4,5-c]pyridin-5-yl)(5-((2-(1-oxidothiomorpholino)ethyl)amino)pyrazin-2-yl)methanone], 270 nM; in that of `CCc1cc(O)c(F)cc1-c1ccc2c(-c3nc4c([nH]3)CCN(C(=O)c3cnc(NCCC5(O)CCN(C)CC5)cn3)C4)n[nH]c2c1` [Example 2(g), (2-(6-(2-ethyl-5-fluoro-4-hydroxyphenyl)-1H-indazol-3-yl)-1,4,6,7-tetrahydro-5H-imidazo[4,5-c]pyridin-5-yl)(5-((2-(4-hydroxy-1-methylpiperidin-4-yl)ethyl)amino)pyrazin-2-yl)methanone], 271 nM.
Turning to `CCc1cc(O)c(F)cc1-c1ccc2c(-c3nc4c([nH]3)CCN(C(=O)c3cnc(N(CCOC)CCOC)cn3)C4)n[nH]c2c1` [Example 2(i), (5-(bis(2-methoxyethyl)amino)pyrazin-2-yl)(2-(6-(2-ethyl-5-fluoro-4-hydroxyphenyl)-1H-indazol-3-yl)-1,4,6,7-tetrahydro-5H-imidazo[4,5-c]pyridin-5-yl)methanone], the IC50 in data set [1] is 14.5 nM. For the same compound, the “% viability at 1 μg/mL” value in data set [2] was determined as 53%.
For `CCc1cc(O)c(F)cc1-c1ccc2c(-c3nc4c([nH]3)CCN(C(=O)c3cnc(N(C)CCN5CCOC5=O)cn3)C4)n[nH]c2c1` [Example 2(u), 3-(2-((5-(2-(6-(2-ethyl-5-fluoro-4-hydroxyphenyl)-1H-indazol-3-yl)-4,5,6,7-tetrahydro-1H-imidazo[4,5-c]pyridine-5-carbonyl)pyrazin-2-yl)(methyl)amino)ethyl)oxazolidin-2-one], the IC50 in data set [1] came out at 73.8 nM.
Turning to `CCc1cc(O)c(F)cc1-c1ccc2c(-c3nc4c([nH]3)CCN(C(=O)c3cnc(N5CCN(CCN(C)C)CC5)cn3)C4)n[nH]c2c1` [Example 2(f), (5-(4-(2-(dimethylamino)ethyl)piperazin-1-yl)pyrazin-2-yl)(2-(6-(2-ethyl-5-fluoro-4-hydroxyphenyl)-1H-indazol-3-yl)-1,4,6,7-tetrahydro-5H-imidazo[4,5-c]pyridin-5-yl)methanone], in data set [1], the IC50 turned out to be 49.3 nM. For the same compound, the “% viability at 1 μg/mL” value in data set [2] was 16%.
